We go through one compound from paper PMC6678097, “Machilin A Inhibits Tumor Growth and Macrophage M2 Polarization Through the Reduction of Lactic Acid” (Cancers, 2019).

One data set addresses LDHB (Homo sapiens, UniProt P07195). The data set is described as follows: LDHB activity (data not shown). The class given is biochemical. Particulars: concentrations of up to 500 μM.
A further data set relates to HT29 cells. Put plainly: Mitochondrial ROS, MitoSOX FACS. It is filed as cell-based, human. The conditions noted are these: 24 h. As for the experimental part:
The production of mitochondrial ROS was determined by MitoSOX™ Red (Thermo Fisher Scientific, Waltham, MA, USA), respectively. Briefly, 5 μM MitoSOX™ Red was added to each cells cultured in conditioned medium and incubated at 37 °C for 10 min. The cells were then washed twice with PBS and the fluorescence intensity was analyzed using a BD FACS Canto II (BD Biosciences, San Jose, CA, USA) measuring excitation/emission at wavelength of 510/580 nm.

The next data set deals with HT29 colon cancer cells. Put plainly: Colony formation assay. It is filed as cell-based, human. Particulars: three weeks. How it is done: (§1) Base agar (0.6%) was placed at the bottom of the 6-well culture plate. After 30 min at room temperature, top agar (0.4%) mixed with HT29 (1 × 10^4 cells) or Hep3B (1 × 10^4 cells) cells was added to the base agar. HT29 and Hep3B cells were incubated at 37 °C and 5% CO2 for three weeks. The colonies were stained using 0.005% crystal violet for 1 h after which they were photographed and counted.

The subject of the next data set is Hep3B liver cancer cells. The data set is described as follows: Colony formation assay. Particulars: three weeks. The class given is cell-based, human. How it is done: as §1
Data set [1] concerns LDHA. Put plainly: LDHA expression, western blot. Particulars: normoxic and hypoxic conditions. It is filed as cell-based, human. How it is done: Total protein was extracted from each cell using 1% NP-40 lysis buffer (150 mM NaCl, 10 mM HEPES (pH 7.45), 1% NP-40, 5 mM Na pyrophosphate, 5 mM NaF, 2 mM Na3VO4) containing protease inhibitor cocktail tablets (Roche, Basel, Switzerland). Equal amounts (20 μg) of protein from each sample were fractionated using SDS-PAGE and the protein was then transferred onto nitrocellulose membranes (Hybond ECL; GE Healthcare, Chicago, IL, USA) using electrophoresis. The membranes were blocked for 1 h at room temperature using 5% non-fat dry milk and were then incubated with primary antibodies specific to the target protein at 4 °C overnight. The membranes were washed three times, and incubated with the respective secondary antibodies conjugated with horseradish peroxidase. The specific bands of targeted proteins were detected using ECL Plus (GE Healthcare, Chicago, IL, USA).

The test system of data set [2] is LDHA. The data set is described as follows: LDH activity and LDHA expression in LLC tumor tissue lysates. It is filed as in vivo, mice. How it is done: A purification of recombinant LDHA was performed as described previously. LDH activity was determined by measuring the decrease of absorbance at 340 nm due to the oxidation of NADH in 20 mM HEPES-K^+, 0.05% bovine serum albumin (BSA), 20 μM NADH, and 2 mM pyruvate (Sigma-Aldrich, St. Louis, MO, USA) at a pH of 7.2 using a spectrofluorometer (Spectramax M2, Molecular Devices, San Jose, CA, USA; excitation 340 nm; emission 460 nm), as described previously. Ten nanograms of recombinant LDHA protein were used in the in vitro LDH activity assay. One microgram of total protein from cell or tissue lysates was used for intracellular or in vivo LDH assays.
LLC and CT26 cells were suspended separately in PBS (5 × 10^5 cells/100 µL PBS) and inoculated in subcutaneously on the back of 7-week-old C57BL/6 mice and BALB/c mice respectively (Orient Bio Inc., Seongnam, Korea; n = 7). One day after the inoculation with tumor cells, mice of the control group (n = 7) were intraperitoneally administrated 100 µL of PBS per day for 18 days. Each of the MA-treated mice were intraperitoneally administrated 0.02, 0.2, or 1 mg MA, respectively, in 100 µL PBS per 20 g body weight, each day for 18 days. […] Length (l) and width (w) of each tumor were measured using a caliper, and the respective volume (V) was calculated according to the formula V = [(l × w^2)/2]. […]

A further data set deals with HUVECs. The data set is described as follows: Growth (MTT) and tube formation of endothelial cells, direct treatment. The conditions noted are these: 24 h. It is filed as cell-based, human. How it is done:
Figure S10. The viabilities of HUVECs and RAW264.7 cells on MA. (A) HUVECs were treated with indicated concentration of machilin A for 24 h. The viabilities of cells were evaluated by MTT assay.
(B ) HUVECs seeded to the Matrigel-coated wells treated with machilin A for 24 h. ( C) Raw 264.7 macrophage cells were treated with indicated concentration of machilin A for 24 h. The viabilities of cells were evaluated by MTT assay.
(1 picture or pasted object on this page, not shown here)

Data set [3] relates to human liver cytochrome P450 2B6. The conditions noted are these: cited from earlier work.

LDHB, sequence (P07195 whole entry, species assumed): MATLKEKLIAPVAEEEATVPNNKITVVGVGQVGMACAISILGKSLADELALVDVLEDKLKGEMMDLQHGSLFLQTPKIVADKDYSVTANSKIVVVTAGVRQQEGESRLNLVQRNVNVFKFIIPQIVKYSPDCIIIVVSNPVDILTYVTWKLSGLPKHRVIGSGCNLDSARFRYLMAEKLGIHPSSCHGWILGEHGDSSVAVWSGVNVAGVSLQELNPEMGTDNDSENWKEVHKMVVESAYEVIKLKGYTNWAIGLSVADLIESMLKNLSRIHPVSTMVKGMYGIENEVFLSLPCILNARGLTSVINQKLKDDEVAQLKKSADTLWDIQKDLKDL

For the compound `C[C@H](Cc1ccc2c(c1)OCO2)[C@@H](C)Cc1ccc2c(c1)OCO2` [MA, bis(3,4-methylenedioxy)-8,8’-lignan], the “effect on LDHB activity” value at LDHB was “did not affect LDHB activity”. Further, the “mitochondrial ROS” value in the data set on HT29 cells is listed as “induced mitochondrial ROS”. Moreover, the “number of surviving colonies” value with HT29 colon cancer cells and in the data set on Hep3B liver cancer cells was “significantly reduced” in each case. For the same compound, the “expression of LDHA” value in the data set on LDHA [1] is “not affected”. For the same compound, in the data set on LDHA [2] (tumor tissue lysates), the “activity of LDH in LLC cell allografts” value is recorded as “clearly inhibited”. Besides, the “expression of LDHA in LLC cell allografts” value in the data set on LDHA [2] (western blot of tumor tissue) is “did not affect”. The “growth and tube formation of endothelial cells” value with HUVECs is on record as “did not directly inhibit”. The “inhibitory effect on drug metabolism” value in data set [3] is reported as “selective inhibitory effect”.
